Assay results: PubChem BioAssay (NCI)
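1) Cells in 96-well plates. 2) Compound, 48 h, 5 concentrations. 3) Linear interpolation between surrounding doses. 4) Unreached endpoint = highest concentration. The concentration for full growth arrest is given as TGI.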

How the values were obtained:
Assay in all cases: NCI tumour cell line growth inhibition, 48 h
SK-MEL-28 melanoma = system: SK-MEL-28 melanoma
SNB-75 CNS = system: SNB-75 CNS
SK-MEL-2 melanoma = system: SK-MEL-2 melanoma
MALME-3M melanoma = system: MALME-3M melanoma
NCI-H460 lung = system: NCI-H460 lung
SN12C renal = system: SN12C renal
HCC-2998 colon = system: HCC-2998 colon
SK-OV-3 ovarian = system: SK-OV-3 ovarian
CAKI-1 renal = system: CAKI-1 renal
NCI-H226 lung = system: NCI-H226 lung
M19-MEL melanoma = system: M19-MEL melanoma
COLO 205 colon = system: COLO 205 colon
786-0 renal = system: 786-0 renal
SF-268 CNS = system: SF-268 CNS
U251 CNS = system: U251 CNS
DLD-1 colon = system: DLD-1 colon
UACC-62 melanoma = system: UACC-62 melanoma
CCRF-CEM leukemia = system: CCRF-CEM leukemia
SF-295 CNS = system: SF-295 CNS
ACHN renal = system: ACHN renal
SW-620 colon = system: SW-620 colon
SR leukemia = system: SR leukemia
SK-MEL-5 melanoma = system: SK-MEL-5 melanoma
DMS 273 small cell lung = system: DMS 273 small cell lung
EKVX NSCLC = system: EKVX NSCLC
NCI-H23 lung = system: NCI-H23 lung
HOP-62 NSCLC = system: HOP-62 NSCLC
HL-60(TB) leukemia = system: HL-60(TB) leukemia
TK-10 renal = system: TK-10 renal
OVCAR-4 ovarian = system: OVCAR-4 ovarian
KM12 colon = system: KM12 colon
KM20L2 colon = system: KM20L2 colon
OVCAR-8 ovarian = system: OVCAR-8 ovarian
UACC-257 melanoma = system: UACC-257 melanoma
RXF-631 renal = system: RXF-631 renal
NCI-H522 lung = system: NCI-H522 lung
HT29 colon = system: HT29 colon
RXF 393 renal = system: RXF 393 renal
XF 498 CNS = system: XF 498 CNS
OVCAR-3 ovarian = system: OVCAR-3 ovarian
OVCAR-5 ovarian = system: OVCAR-5 ovarian
HCT-116 colon = system: HCT-116 colon
SF-539 CNS = system: SF-539 CNS
LXFL 529 NSCLC = system: LXFL 529 NSCLC
IGROV1 ovarian = system: IGROV1 ovarian
SNB-19 CNS = system: SNB-19 CNS
DMS 114 small cell lung = system: DMS 114 small cell lung
SNB-78 CNS = system: SNB-78 CNS
RPMI-8226 leukemia = system: RPMI-8226 leukemia
A549 NSCLC = system: A549 NSCLC
HCT-15 colon = system: HCT-15 colon
M14 melanoma = system: M14 melanoma
LOX IMVI melanoma = system: LOX IMVI melanoma
UO-31 renal = system: UO-31 renal
HOP-92 NSCLC = system: HOP-92 NSCLC
MOLT-4 leukemia = system: MOLT-4 leukemia
K-562 leukemia = system: K-562 leukemia

O=C(Cc1ccc(F)cc1)NC1=C(Cl)C(=O)c2ccccc2C1=O
TGI (SK-MEL-28 melanoma): 11.6 µM | TGI (SNB-75 CNS): 18.3 µM | TGI (SK-MEL-2 melanoma): 6.33 µM | TGI (MALME-3M melanoma): 7.89 µM | TGI (NCI-H460 lung): 13.8 µM | TGI (SN12C renal): 13.8 µM | TGI (HCC-2998 colon): 16 µM | TGI (SK-OV-3 ovarian): 58.3 µM | TGI (CAKI-1 renal): 19.8 µM | TGI (NCI-H226 lung): 12.7 µM | TGI (M19-MEL melanoma): 14.7 µM | TGI (COLO 205 colon): 12.7 µM | TGI (786-0 renal): 19.5 µM | TGI (SF-268 CNS): 15.1 µM | TGI (U251 CNS): 11.5 µM | TGI (DLD-1 colon): 4.24 µM | TGI (UACC-62 melanoma): 9.87 µM | TGI (CCRF-CEM leukemia): > 100 µM | TGI (SF-295 CNS): 12 µM | TGI (ACHN renal): 3.4 µM | TGI (SW-620 colon): 5.76 µM | TGI (SR leukemia): 3.34 µM | TGI (SK-MEL-5 melanoma): 11.3 µM | TGI (DMS 273 small cell lung): 13.6 µM | TGI (EKVX NSCLC): 16 µM | TGI (NCI-H23 lung): 5.94 µM | TGI (HOP-62 NSCLC): 44.6 µM | TGI (HL-60(TB) leukemia): 390 nM | TGI (TK-10 renal): 14.5 µM | TGI (OVCAR-4 ovarian): 9.28 µM | TGI (KM12 colon): 14.4 µM | TGI (KM20L2 colon): 34.8 µM | TGI (OVCAR-8 ovarian): 4.05 µM | TGI (UACC-257 melanoma): 6.56 µM | TGI (RXF-631 renal): > 50 µM | TGI (NCI-H522 lung): 1250 nM | TGI (HT29 colon): 35.4 µM | TGI (RXF 393 renal): 4.11 µM | TGI (XF 498 CNS): 4.02 µM | TGI (OVCAR-3 ovarian): 9.33 µM | TGI (OVCAR-5 ovarian): 13.1 µM | TGI (HCT-116 colon): 11.9 µM | TGI (SF-539 CNS): 5.02 µM | TGI (LXFL 529 NSCLC): 10.5 µM | TGI (IGROV1 ovarian): 6.63 µM | TGI (SNB-19 CNS): > 100 µM | TGI (DMS 114 small cell lung): 1800 nM | TGI (SNB-78 CNS): 34.7 µM | TGI (RPMI-8226 leukemia): 4.14 µM | TGI (A549 NSCLC): 16.4 µM | TGI (HCT-15 colon): 7.43 µM | TGI (M14 melanoma): 12.4 µM | TGI (LOX IMVI melanoma): 9.05 µM | TGI (UO-31 renal): 7.88 µM | TGI (HOP-92 NSCLC): 3.68 µM

CCC1=CCN(c2ccc(C)cc2)OC1c1ccc(OC)cc1 (stereo not given)
TGI (SK-MEL-28 melanoma): > 100 µM | TGI (SNB-75 CNS): > 100 µM | TGI (SK-MEL-2 melanoma): > 100 µM | TGI (MALME-3M melanoma): > 100 µM | TGI (NCI-H460 lung): > 100 µM | TGI (SN12C renal): > 100 µM | TGI (HCC-2998 colon): > 100 µM | TGI (SK-OV-3 ovarian): > 100 µM | TGI (CAKI-1 renal): > 100 µM | TGI (NCI-H226 lung): > 100 µM | TGI (M19-MEL melanoma): > 100 µM | TGI (COLO 205 colon): > 100 µM | TGI (786-0 renal): > 100 µM | TGI (SF-268 CNS): > 100 µM | TGI (U251 CNS): > 100 µM | TGI (DLD-1 colon): > 100 µM | TGI (UACC-62 melanoma): > 100 µM | TGI (CCRF-CEM leukemia): > 100 µM | TGI (SF-295 CNS): > 100 µM | TGI (ACHN renal): > 100 µM | TGI (SW-620 colon): > 100 µM | TGI (SR leukemia): > 100 µM | TGI (DMS 273 small cell lung): > 100 µM | TGI (EKVX NSCLC): > 100 µM | TGI (NCI-H23 lung): > 100 µM | TGI (HOP-62 NSCLC): > 100 µM | TGI (HL-60(TB) leukemia): > 100000 nM | TGI (TK-10 renal): > 100 µM | TGI (OVCAR-4 ovarian): > 100 µM | TGI (KM12 colon): > 100 µM | TGI (KM20L2 colon): > 100 µM | TGI (OVCAR-8 ovarian): > 100 µM | TGI (MOLT-4 leukemia): > 100 µM | TGI (UACC-257 melanoma): > 100 µM | TGI (RXF-631 renal): > 100 µM | TGI (NCI-H522 lung): > 100000 nM | TGI (HT29 colon): > 100 µM | TGI (RXF 393 renal): > 100 µM | TGI (XF 498 CNS): > 100 µM | TGI (OVCAR-3 ovarian): > 100 µM | TGI (OVCAR-5 ovarian): > 100 µM | TGI (HCT-116 colon): > 100 µM | TGI (SF-539 CNS): > 100 µM | TGI (LXFL 529 NSCLC): > 100 µM | TGI (IGROV1 ovarian): > 100 µM | TGI (SNB-19 CNS): > 100 µM | TGI (DMS 114 small cell lung): > 100000 nM | TGI (K-562 leukemia): > 100 µM | TGI (SNB-78 CNS): > 100 µM | TGI (RPMI-8226 leukemia): > 100 µM | TGI (A549 NSCLC): > 100 µM | TGI (HCT-15 colon): > 100 µM | TGI (M14 melanoma): > 100 µM | TGI (LOX IMVI melanoma): > 100 µM | TGI (UO-31 renal): > 100 µM
